Test results: patent US20130095059A1, “INHALED NO DONOR KMUPS DERIVATIVE PREVENTING ALLERGIC PULMONARY VASCULAR AND BRONCHIAL INFLAMMATION VIA SUPPRESSED CYTOKINES, INOS AND INFLAMMATORY CELL COUNTS IN ASTHMA MODEL” (priority 2007, published 2013)

What was measured:
5-HT2A receptor = biological target: T1, 5-HT2A receptor (Homo sapiens, UniProt P28223); assay: Displacement of radioligand binding, 5-HT2A; details: [^3H]-ketanserin, human recombinant CHO-K1 cells
T1 construct: full length clones of 5-HT2A, 5-HT2B and 5-HT2C receptor were prepared from CHO-K1 cells; expressed in transfected cells; host or cells: CHO-K1
T1 sequence (P28223 whole entry): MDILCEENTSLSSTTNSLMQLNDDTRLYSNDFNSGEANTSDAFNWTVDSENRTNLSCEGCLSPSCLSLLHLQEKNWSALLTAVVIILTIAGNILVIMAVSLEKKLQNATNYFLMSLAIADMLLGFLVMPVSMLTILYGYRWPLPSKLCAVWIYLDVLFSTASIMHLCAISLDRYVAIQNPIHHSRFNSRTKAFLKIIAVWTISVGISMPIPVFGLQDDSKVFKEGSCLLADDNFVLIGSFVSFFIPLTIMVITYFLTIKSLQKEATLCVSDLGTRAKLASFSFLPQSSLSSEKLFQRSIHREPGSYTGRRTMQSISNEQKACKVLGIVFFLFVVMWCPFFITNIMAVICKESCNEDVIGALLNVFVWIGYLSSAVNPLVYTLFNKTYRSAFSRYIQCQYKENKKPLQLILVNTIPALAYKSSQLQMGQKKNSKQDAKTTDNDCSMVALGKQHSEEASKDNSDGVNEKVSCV
Description: Displacement of Radioligand Binding Assay
As described previously, full length clones of 5-HT2A, 5-HT2B and 5-HT2C receptor were prepared from CHO-K1 cells. […] IC50 represents the concentration of competing ligand which displaces 50% of the specific binding of the radioligand. Ki values for competition curves were calculated using the Cheng-Prusoff equation (Cheng, 2001).

PASMCs [1] = assay: Cell migration (wound) assay of PASMCs; format: cell-based, Wistar rats; details: 10-100 μM; 5-HT 10 μM 24 h
Description: Migration of PASMCs was assessed using a wound assay model in which cells grown to confluence on 6 well dishes were scraped with the edge of a fine razor. The wound edge was viewed and photographed under a microscope (Nikon, Tokyo, Japan) before and after culture for 24 h in serum-free DMEM in the presence of 5HT (10 μM). The distance the cells migrated from the wound surface was then manually measured.

NO = assay: Nitric oxide production in HPAEC (Griess); format: cell-based, human; details: 10 μM, 24 h before adding 5-HT
Description: Production of NO in HPAEC was determined using the Griess method. The three step Greiss test converts nitrate (NO3^−) into nitrite (NO2^−) giving a total NO2^− concentration from a standard calibration curve. HPAEC were incubated with or without KMUP-1 (10 μM) for 24 h and then incubated with 5-HT (10 μmol/L) for 30 min. Media samples from HPAEC were taken and the NO concentration was determined. Six independent experiments were carried out and data are reported as the mean mean±SEM.

PASMCs [2] = assay: PASMCs [Ca2+]i measurement (Fura-2/AM); format: cell-based, Wistar rats
Description: Wistar rats were anesthetized with an overdose of sodium pentobarbital (60 mg/kg) and the skin was sterilized with 75% alcohol. The chest was opened and the heart and lung were removed. The organs were rinsed several times in PBS. The pulmonary artery were segregated in a sterile manner. The outer sphere was peeled and the microtubule was snipped visually, and endothecia were shaved lightly 2-3 times in order to remove endothelial cells. The tunica media was prepared into scraps (1 mm^3) in DMEM (Dulbecco's modified Eagle's medium). PASMCs were cultured in DMEM containing 10% fetal bovine serum (5% CO2 at 37° C.). The culture medium was changed every 3 days and cells were subcultured until confluence. Primary cultures of 2-4 passages were used in the experiments. Cells were examined by immunofluorescence staining of α-actin to confirm the purity of PASMCs.
The measurement of [Ca^2+]i in PASMCs was performed using a spectrofluorophotometer as previously reported. PASMCs, cultured for 2-4 passages and re-suspended by trypsin, were loaded with Fura-2/AM for the measurement of [Ca^2+]i changes in cells within the cuvette by spectrofluorophotometer (Shimadzu, RF-5301PC, Shimadzu, Japan). KMUP-1 was applied 5 min before application of 5-HT (10 μM).

PKG = assay: Ovalbumine model, PKG expression; format: in vivo, BALB/c mice; details: 28-day experiment; nebulization
Description: (§1) In this long-term experiment, 6-8 week old BALB/c female mice were sensitized on days 1 and 8 by intra-peritoneal injection (i.p.) of ovalbumine (10 μg) (Sigma-Aldrich, Schnelldorf, Germany) adsorbed to 2 mg aluminum hydroxide (AlumInject; Perbio, Erembodegem, Belgium). Mice were divided into three groups. In Group 1, a control group was only exposed to saline nebulization by aerosol. The other 2 groups were subjected to ovalbumine (1%) nebulization. Before each challenge with ovalbumine, mice were either exposed to saline nebulization (Group 2) or KMUP-1 nebulization (5 mM) for 30 min by aerosol (Group 3).
The lung tissues were homogenized, washed with PBS and incubated in lysis buffer in addition to a protease inhibitor cocktail (Sigma, St. Louis, Mo.) to obtain extracts of lung proteins. A Western blot analysis was performed as described previously (Wu B N, et al., 2006). The samples were loaded to 10% SDS-PAGE gels and were separated at 120 V for 90 min. The blots were incubated with anti-eNOS antibody diluted at a ratio of 1:500, anti-sGCα1 antibody diluted at a ratio of 1:2000, anti-PKG antibody diluted at a ratio of 1:500, anti-VCAM-1 antibody diluted at a ratio of 1:500, anti-ICAM-1 antibody diluted at a ratio of 1:500, and anti-MMP-9 antibody diluted at a ratio of 1:600 overnight at 4° C. […]

eNOS = assay: Ovalbumine model, eNOS immunostaining in lung sections; design: species or system BALB/c mice; details: mouse, in vivo
Description: as §1
Immunohistochemical analysis of eNOS enhancement by KMUP-1 was performed as follows. The lungs were perfused with saline followed by 10% formalin and then placed in 10% formalin for paraffin embedding. The lung tissues were cut into […] sections onto slides, dewaxed in 100% xylene, and then re-hydrated in graded alcohol solutions. Throughout the procedures, slides were washed as appropriate in PBS. Antigen retrieval was performed by microwave treatment for eNOS immunostaining. Sections were treated with 3% H2O2 (10 min) to inhibit endogenous peroxidases and incubated with normal serum (60 min) to reduce nonspecific binding of secondary antibodies. Sections were then incubated at 4° C. overnight with eNOS antibodies. […]

Q: What does the source list for `Cn1c(=O)c2c(ncn2CCN2CCN(c3ccccc3Cl)CC2)n(C)c1=O` [KMUP-1, 7-[2-[4-(2-chlorophenyl)piperazinyl]ethyl]-1,3-dimethylxanthine]?
A: IC50 (5-HT2A receptor): 340 nM; Ki (5-HT2A receptor; Cheng-Prusoff): 97.1 nM; 5-HT-induced PASMCs migration (PASMCs [1]): concentration-dependently suppressed; release of NO compared to 5-HT treatment alone (NO): raised; inhibition of sustained [Ca^2+]i response to 5-HT (PASMCs [2]; 10 μM): 65%; 5-HT-induced elevation of [Ca^2+]i (PASMCs [2]; 0.1-100 μM, 5-HT 10 μM): concentration-dependently inhibited; decreased PKG expression by ovalbumine sensitization (PKG): significantly reduced; ovalbumine-decreased vascular eNOS-immunostaining in lung sections (eNOS): prevented this decrease
